This is an account of results in the RepoRT retention time repository (doi:10.1021/acs.analchem.1c00972).

A short description of data set [1]: RP, Waters ACQUITY UPLC BEH C18, 100 × 1 mm, 1.7 µm, 50 °C, 0.3 mL/min, estimated dead time 0.17 min; A: water + 0.1% formic acid + 20 mM ammonium formate; B: methanol + 0.1% formic acid + 20 mM ammonium formate; gradient (min/%B) 0/0 15/100 21/100 22/0 30/0. The following applies: stereoisomer not certain.
A short description of data set [2]: RP, Waters ACQUITY UPLC BEH C18, 100 × 1 mm, 1.7 µm, 50 °C, 0.3 mL/min, estimated dead time 0.17 min; A: water + 10 mM ammonium bicarbonate; B: 10% water + 90% methanol + 10 mM ammonium bicarbonate; gradient (min/%B) 0/0 15/100 21/100 22/0 30/0. The conditions noted are these: stereoisomer not certain.

Regarding `COC(=O)C1=COC(C)C2CN3CCc4c([nH]c5ccccc45)C3CC12` (centres undefined) [Ajmalicine], the LC retention time in data set [1] is 10.1 min; in data set [2], 15.5 min.

For the compound `Cn1cc[nH]c1=S` [Methimazol], the figures for the LC retention time in data set [1] and in data set [2] were 2.75 min and 2.82 min, respectively.

Take `COP(=O)(OC)SCn1c(=O)oc2cc(Cl)cnc21` [Azamethiphos]: the values for the LC retention time in data set [1] and in data set [2] were 11.4 min and 11.6 min, respectively.

As for `CN1CCN2c3ncccc3Cc3ccccc3C2C1` (centres undefined) [Mirtazapine], the LC retention time in data set [1] is 9.7 min; in data set [2], 14.9 min.

For the compound `CC1CC2C3CCC4=CC(=O)C=CC4(C)C3(F)C(O)CC2(C)C1(O)C(=O)CO` (centres undefined) [Dexamethasone], the results for the LC retention time in data set [1] and in data set [2] were 13.2 min and 13.5 min, respectively.

Turning to `CC(C)(C)C(=O)C(Oc1ccc(Cl)cc1)n1ccnc1` (centres undefined) [Climbazole], the results for the LC retention time in data set [1] and in data set [2] were 13.2 min and 15.1 min, respectively.

On to `CCOP(=S)(OCC)Oc1cc(C)nc(C(C)C)n1` [Diazinon], for which the values for the LC retention time in data set [1] and in data set [2] were 15.7 min and 16 min, respectively.

For the compound `C#CC1(O)C=CC2C3CCC4=CC(=O)CCC4C3CCC21CC` (centres undefined) [Gestoden], the LC retention time in data set [1] was 14 min; in data set [2] it was 14.3 min.

In the case of `COC(=O)c1ccc(C(=O)OC)cc1` [Dimethyl terephthalate], the LC retention time in data set [1] was 11.1 min; in data set [2], 20.7 min.

Consider `CC1CCCC(O)CCCC=Cc2cc(O)cc(O)c2C(=O)O1` (stereo not drawn) [beta Zearalenol], for which the LC retention time is 13.4 min in data set [1] and 13.3 min in data set [2].

Take `CC1C(C)(C)C2=C(C(=O)CCC2)C1(C)C` (centres undefined) [Cashmeran]: the LC retention time in data set [1] was 16.2 min; in data set [2], 16.6 min.

Consider `COc1ccccc1OCC(O)COC(N)=O` (centres undefined) [Methocarbamol], for which the LC retention time in data set [1] is 9.52 min; in data set [2], 9.71 min.

As to `CCC1C(=O)OCC1Cc1cncn1C` (centres undefined) [Pilocarpine], the LC retention time in data set [1] was 4.92 min; in data set [2] it was 8.77 min.

In the case of `Clc1nc2ccccc2s1` [2-Chlorobenzothiazole], the LC retention time in data set [1] was 13.5 min; in data set [2], 13.8 min.

`Cc1cc(=O)[nH]c(C(C)C)n1` [2-Isopropyl-6-methyl-pyrimidin-4-ol]: the figures for the LC retention time in data set [1] and in data set [2] were 7.61 min and 8.01 min, respectively.

With `NC(=O)c1ccc(N)cc1` [4-Aminobenzamide], the results for the LC retention time in data set [1] and in data set [2] were 2.09 min and 2.63 min, respectively.

`CCCCOC(=O)C(C)Oc1ccc(Oc2ccc(C(F)(F)F)cn2)cc1` (centres undefined) [Fluazifop-butyl]: the LC retention time in data set [1] was 16.7 min; in data set [2], 17.1 min.

As for `CCC(C)C1OC2(CCC1C)CC1CC(CC=C(C)C(OC3CC(OC)C(OC4CC(OC)C(O)C(C)O4)C(C)O3)C(C)C=CC=C3COC4C(O)C(C)=CC(C(=O)O1)C34O)O2` (centres undefined) [Ivermectin B1a], the LC retention time was 18.8 min in data set [1] and 19.3 min in data set [2].

`CCCCCCCCCCCCNC` [N-Methyldodecylamine]: the results for the LC retention time in data set [1] and in data set [2] were 15.2 min and 17.7 min, respectively.

Consider `COP(=S)(OC)Oc1ccc(Sc2ccc(OP(=S)(OC)OC)cc2)cc1` [Temephos], for which the LC retention time in data set [1] is 16.8 min; in data set [2], 17.2 min.

Regarding `CCCCCCCCCC(=O)N(C)C` [N,N-Dimethyldecan-1-amide], the LC retention time in data set [1] is 16.1 min; in data set [2] it was 16.5 min.

Take `NC(=Nc1ccccc1)Nc1ccccc1` [1,3-Diphenylguanidine]: the LC retention time in data set [1] is 8.76 min; in data set [2], 10 min.

On to `CCCCOCCOCCOCCOCCO` [Tetraethyleneglycol monobutyl ether], for which the LC retention time was 11.7 min in data set [1] and 12 min in data set [2].

For `CCC(=C(c1ccccc1)c1ccc(OCCN(C)C)cc1)c1ccccc1` [Tamoxifen], the values for the LC retention time in data set [1] and in data set [2] were 15.8 min and 18.4 min, respectively.

Regarding `COC(=O)c1ccccc1S(=O)(=O)NC(=O)Nc1nc(OC(F)F)cc(OC(F)F)n1` [Primisufuron-methyl], the LC retention time in data set [1] is 14.4 min; in data set [2], 12.6 min.

Consider `CCc1cccc(C)c1N(C(=O)CS(=O)(=O)O)C(C)C(=O)O` (centres undefined), for which the LC retention time in data set [1] was 11 min; in data set [2], 8.62 min.

Take `C=C1C(=O)OC2CC[N+]3([O-])CC=C(COC(=O)C(C)(O)C(C)C1C)C23` (centres undefined) [Senecivernine N-oxide]: the LC retention time in data set [1] was 8.69 min; in data set [2] it was 9.7 min.

Take `O=c1c(O)c(-c2ccc(O)cc2)oc2cc(O)cc(O)c12` [Kaempferol]: the LC retention time in data set [1] is 12.3 min; in data set [2], 10.1 min.

`c1ccc2nc3ccccc3cc2c1` [Acridin]: the figures for the LC retention time in data set [1] and in data set [2] were 8.84 min and 14.6 min, respectively.

With `CN1C(=O)CN=C(C2=CCCCC2)c2cc(Cl)ccc21` [Tetrazepam], the LC retention time was 15 min in data set [1] and 15.7 min in data set [2].

As for `CCCC(CCC)C(=O)O` [Valproic acid], the LC retention time was 14.2 min in data set [1] and 10.2 min in data set [2].

On to `C=C1C(=O)OC2CCN3CC=C(COC(=O)C(C)(O)C(C)C1C)C23` (centres undefined) [Senecivernine], for which the LC retention time in data set [1] is 8.55 min; in data set [2], 12.7 min.

In the case of `COc1cc2ccc(=O)oc2c(O)c1OC` [Fraxidin], the figures for the LC retention time in data set [1] and in data set [2] were 9.59 min and 8.22 min, respectively.

With `CC(C)CN(CC(O)C(Cc1ccccc1)NC(=O)OC1COC2OCCC12)S(=O)(=O)c1ccc(N)cc1` (centres undefined) [Darunavir], the figures for the LC retention time in data set [1] and in data set [2] were 13.1 min and 13.4 min, respectively.

As to `O=C1CCCC2C3CCCN4CCCC(CN12)C34` (centres undefined) [Matrine], the LC retention time in data set [1] was 5.2 min; in data set [2], 13 min.

`COCCCNc1nc(NC(C)C)nc(SC)n1` [Methoprothryne]: the LC retention time in data set [1] was 13.1 min; in data set [2] it was 14.2 min.

Take `CC(=O)Nc1c(I)c(NC(C)=O)c(I)c(C(=O)O)c1I` [Diatrizoate]: the figures for the LC retention time in data set [1] and in data set [2] were 4.47 min and 3.99 min, respectively.

With `CN(C)C(=O)NC1CCCCC1` [3-Cyclohexyl-1,1-dimethylurea], the LC retention time in data set [1] is 10.9 min; in data set [2], 11.1 min.

With `CC1COC(=O)c2cc3c(cc21)C(C)(C)C(C)C3(C)C` (centres undefined) [Galaxolidone], the LC retention time was 16.6 min in data set [1] and 16.9 min in data set [2].

For the compound `CCC1OC(=O)CC(O)C(C)C(OC2OC(C)C(OC3CC(C)(O)C(O)C(C)O3)C(N(C)C)C2O)C(CC=O)CC(C)C(=O)C=CC(C)=CC1COC1OC(C)C(O)C(OC)C1OC` (centres undefined) [Tylosin], the LC retention time was 13.1 min in data set [1] and 15.5 min in data set [2].

Regarding `CC(C)c1nc(CN(C)C(=O)NC(C(=O)NC(Cc2ccccc2)CC(O)C(Cc2ccccc2)NC(=O)OCc2cncs2)C(C)C)cs1` (centres undefined) [Ritonavir], the LC retention time in data set [1] is 15.9 min; in data set [2], 16.3 min.

As for `O=c1[nH]c2ccccc2n1CCCN1CCC(n2c(=O)[nH]c3cc(Cl)ccc32)CC1` [Domperidone], the results for the LC retention time in data set [1] and in data set [2] were 10.7 min and 14.8 min, respectively.
